Measured values reported in ChEMBL document CHEMBL1201862, “PubChem BioAssay data set” (2004).
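Method: 48-hour compound exposure of cells in 96-well plates, five concentrations, linear interpolation of endpoints. The concentration for 50% growth inhibition is given as GI50.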 The source made the active and inactive calls. No stated cut-off is given here; in the data, active = GI50 up to about 1.1 µM and inactive = higher.

Experiments:
Assay in all cases: NCI anticancer screen, dose series, 48 h
A498 = tested on: A498
ACHN = tested on: ACHN
DU-145 = tested on: DU-145
HCT-116 = tested on: HCT-116
HL-60 = tested on: HL-60
HOP-92 = tested on: HOP-92
Hs-578T = tested on: Hs-578T
LOX IMVI = tested on: LOX IMVI
MDA-MB-231 = tested on: MDA-MB-231
MDA-MB-435 = tested on: MDA-MB-435
MDA-N = tested on: MDA-N
MOLT-4 = tested on: MOLT-4
Malme-3M = tested on: Malme-3M
OVCAR-4 = tested on: OVCAR-4
OVCAR-8 = tested on: OVCAR-8
PC-3 = tested on: PC-3
RXF 393 = tested on: RXF 393
SF-295 = tested on: SF-295
TK-10 = tested on: TK-10

Measured: GI50

Oc1nc2cc(Cl)ccc2nc1/C(=N\Nc1ccccc1)C(O)c1ccc2c(c1)OCO2 (stereo not drawn)
inactive: A498 > 100 µM | ACHN > 100 µM | DU-145 > 100 µM | HCT-116 > 100 µM | HL-60 > 100 µM | HOP-92 > 100 µM | Hs-578T > 100 µM | LOX IMVI > 100 µM | MDA-MB-231 > 100 µM | MDA-MB-435 > 100 µM | MDA-N > 100 µM | MOLT-4 > 100 µM | Malme-3M > 100 µM | OVCAR-4 > 100 µM | OVCAR-8 > 100 µM | PC-3 > 100 µM | RXF 393 > 100 µM | SF-295 > 100 µM | TK-10 > 100 µM

Clc1ccccc1/C=C/c1ccnc2ccccc12
inactive: A498 18.8 µM | ACHN 16.5 µM | DU-145 15.7 µM | HCT-116 15.7 µM | HL-60 19.8 µM | HOP-92 10.2 µM | Hs-578T 20.7 µM | LOX IMVI 18.4 µM | MDA-MB-231 22.9 µM | MDA-MB-435 15.8 µM | MDA-N 14.6 µM | Malme-3M 19.5 µM | OVCAR-4 16.1 µM | OVCAR-8 18.3 µM | PC-3 16.4 µM | RXF 393 16.5 µM | SF-295 15.7 µM | TK-10 18 µM

O=C(O)CC1(C(=O)O)CCCCC1
inactive: A498 > 100 µM | ACHN > 100 µM | DU-145 > 100 µM | HCT-116 > 100 µM | HL-60 > 100 µM | HOP-92 > 100 µM | Hs-578T > 100 µM | LOX IMVI > 100 µM | MDA-MB-231 > 100 µM | MDA-MB-435 > 100 µM | MDA-N > 100 µM | MOLT-4 > 100 µM | Malme-3M > 100 µM | OVCAR-4 > 100 µM | OVCAR-8 > 100 µM | PC-3 > 100 µM | RXF 393 > 100 µM | SF-295 > 100 µM | TK-10 > 100 µM

COc1ccc(OC)c2c1C(=O)C(O)=C(Cl)C2=O
inactive: A498 > 100 µM | ACHN > 100 µM | DU-145 > 100 µM | HCT-116 > 100 µM | HL-60 > 100 µM | HOP-92 > 100 µM | Hs-578T > 100 µM | LOX IMVI > 100 µM | MDA-MB-231 > 100 µM | MDA-MB-435 > 100 µM | MDA-N > 100 µM | MOLT-4 > 100 µM | Malme-3M > 100 µM | OVCAR-4 > 100 µM | OVCAR-8 > 100 µM | PC-3 > 100 µM | RXF 393 > 100 µM | SF-295 > 100 µM | TK-10 > 100 µM

N=C(N)SCc1ccc(Cl)cc1Cl.O=[N+]([O-])c1c(O)c(Cl)cc(Cl)c1Cl
inactive: A498 13.3 µM | ACHN 10.7 µM | DU-145 13.5 µM | HCT-116 11.8 µM | HL-60 6.04 µM | HOP-92 11.5 µM | Hs-578T 20.7 µM | LOX IMVI 16.7 µM | MDA-MB-231 10.7 µM | MDA-MB-435 6.22 µM | MDA-N 7.46 µM | MOLT-4 7.4 µM | Malme-3M 15.6 µM | OVCAR-4 12 µM | OVCAR-8 24.3 µM | PC-3 11.9 µM | RXF 393 12.8 µM | SF-295 13.5 µM | TK-10 6.18 µM

CCc1c(Cl)c(C)cc(O)c1Cl
inactive: A498 18.8 µM | ACHN 22.1 µM | DU-145 > 100 µM | HCT-116 33.5 µM | HL-60 18.3 µM | HOP-92 23.2 µM | Hs-578T 25.7 µM | LOX IMVI 23.8 µM | MDA-MB-231 40.7 µM | MDA-MB-435 35.6 µM | MDA-N 19.4 µM | MOLT-4 27.4 µM | Malme-3M 30.1 µM | OVCAR-4 34.1 µM | OVCAR-8 44.3 µM | PC-3 19.6 µM | RXF 393 23.4 µM | SF-295 33.1 µM | TK-10 > 100 µM

O=C1CC(=O)NC(NNS(=O)(=O)c2ccc(Cl)cc2)=N1
inactive: A498 > 100 µM | ACHN > 100 µM | DU-145 > 100 µM | HCT-116 > 100 µM | HL-60 70.8 µM | HOP-92 > 100 µM | Hs-578T > 100 µM | MDA-MB-231 > 100 µM | MDA-MB-435 > 100 µM | MDA-N > 100 µM | MOLT-4 > 100 µM | Malme-3M > 100 µM | OVCAR-4 > 100 µM | OVCAR-8 > 100 µM | PC-3 > 100 µM | RXF 393 > 100 µM | SF-295 > 100 µM | TK-10 > 100 µM

CN(C)CCCNC(=O)CCNC(=O)c1cc(NC(=O)c2cc(NC(=O)c3cc(NC(=O)c4nccn4C)cn3C)cn2C)cn1C
inactive: A498 > 100 µM | ACHN > 100 µM | DU-145 > 100 µM | HCT-116 > 100 µM | HL-60 18.8 µM | HOP-92 > 100 µM | Hs-578T > 100 µM | LOX IMVI 21.9 µM | MDA-MB-231 > 100 µM | MDA-MB-435 > 100 µM | MDA-N > 100 µM | MOLT-4 > 100 µM | Malme-3M > 100 µM | OVCAR-8 > 100 µM | PC-3 > 100 µM | RXF 393 > 100 µM | SF-295 > 100 µM | TK-10 > 100 µM

OC(CCN1CCN(CCOC(c2ccccc2)c2ccccc2)CC1)c1ccccc1 (stereo not drawn)
inactive: A498 2.4 µM | ACHN 27 µM | DU-145 39.7 µM | HCT-116 17.5 µM | HL-60 16.7 µM | HOP-92 22.5 µM | Hs-578T 21.1 µM | LOX IMVI 19 µM | MDA-MB-231 15.9 µM | MDA-MB-435 18.5 µM | MDA-N 19.3 µM | Malme-3M 17.5 µM | OVCAR-4 30.1 µM | OVCAR-8 17.7 µM | PC-3 21.5 µM | RXF 393 19.9 µM | SF-295 20.1 µM | TK-10 22.3 µM

CC(=O)Nc1cc(Nc2cc(O)nc(O)n2)ccc1C
inactive: A498 > 100 µM | ACHN > 100 µM | DU-145 > 100 µM | HCT-116 > 100 µM | HL-60 > 100 µM | HOP-92 > 100 µM | Hs-578T > 100 µM | LOX IMVI > 100 µM | MDA-MB-231 > 100 µM | MDA-MB-435 > 100 µM | MDA-N > 100 µM | Malme-3M > 100 µM | OVCAR-4 > 100 µM | OVCAR-8 > 100 µM | PC-3 > 100 µM | RXF 393 > 100 µM | SF-295 > 100 µM | TK-10 > 100 µM

C=CCN1C(=O)CC(=O)N(NC2=NNC3(C(=O)N2)c2ccccc2-c2ccccc23)C1=S
inactive: A498 34.8 µM | ACHN 34.4 µM | DU-145 44.5 µM | HCT-116 28.4 µM | HL-60 27.9 µM | HOP-92 15.4 µM | Hs-578T 13.6 µM | LOX IMVI 42.7 µM | MDA-MB-231 > 100 µM | MDA-MB-435 44.5 µM | MDA-N > 100 µM | Malme-3M 38 µM | OVCAR-4 29.4 µM | OVCAR-8 29.2 µM | PC-3 23.9 µM | RXF 393 27.7 µM | SF-295 37 µM | TK-10 64.1 µM
